“Also recorded” adds a separate entry of the source.
Tested on: activated platelets
Assay: in vitro screening of activated labeled platelets binding to polymer-modified surfaces
Assay type: cell-based
Details: preliminary work; PEG 4600
Description: An in vitro system was developed for high throughput screening of the coagulation efficiency of the synthetic platelets with the platelets labeled using CellTracker green following to facilitate ease of analysis. Essentially, this assay involves activating platelets which have been previously labeled with CellTracker and looking at the number that bind to surfaces modified with a polymer systems under agitation. This assay was validated with collagen. This system allowed one to efficiently and independently vary the PEG molecular weight and RGD motif (i.e. RGD, RGDS, and GRGDS).

For GRGDS [GRGDS peptide], the “adhesion and aggregation of activated platelets” value was “efficient adhesion and aggregation; also recorded: good binding and adhesion”.

From patent US20140242180A1, “NANOPARTICLES FOR CONTROLLING BLEEDING AND DRUG DELIVERY” (CASE WESTERN RESERVE UNIVERSITY, priority 2011, published 2014)
